According to US12077503B2, “Substituted cyclic amides and their use as herbicides” (FMC CORPORATION, priority 2015, dated 2024):

What was measured:
Type in all cases: in vivo
[1] = system: giant foxtail (Setaria faberi); assay: Test G Pre-Emergence Protocol; details: Setaria faberi, pre-emergence, 312 h, evaluated after 13 days; for pest or weed control at 15.625 g/ha: 15.625 g ai/ha; for pest or weed control at 15.625 g/ha / pest or weed control at 250 g/ha: read-out: Foxtail, Giant damage rating (100=total damage to plant; 0=no damage to plant); for pest or weed control at 62.5 g/ha: 62.5 g ai/ha, 100=total damage to plant, 0=no damage to plant, read-out: plant damage rating, Foxtail, Giant; for pest or weed control at 250 g/ha: 250 g ai/ha
How it was run: (§1)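 Under a 24/16° C day/night regime with 14 h light and 65% humidity, sown pots were sprayed after one day with compound (15.625, 62.5 or 250 g/ha; 50:50 acetone/water, 0.5% Tween 20). Damage was assessed visually 13 days later, 0 to 100.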

[2] = system: ivy-leaved morning glory (Ipomoea hederacea); assay: Test G Pre-Emergence Protocol; details: Ipomoea, pre-emergence, 312 h, evaluated after 13 days; for pest or weed control at 15.625 g/ha: 15.625 g ai/ha, read-out: Morning-glory, Ivy-leaved damage rating (100=total damage to plant; 0=no damage to plant); for pest or weed control at 62.5 g/ha: 62.5 g ai/ha, 100=total damage to plant, 0=no damage to plant, read-out: plant damage rating, Morningglory, Ivy-leaved; for pest or weed control at 250 g/ha: 250 g ai/ha, read-out: Morningglory, Ivy-leaved damage rating (100=total damage to plant; 0=no damage to plant)
How it was run: as §1

[3] = system: barnyardgrass (Echinochloa crus-galli); assay: Test G Pre-Emergence Protocol; details: Echinochloa crus-galli, pre-emergence, 312 h, evaluated after 13 days; for pest or weed control at 15.625 g/ha: 15.625 g ai/ha, read-out: Barnyard grass damage rating (100=total damage to plant; 0=no damage to plant); for pest or weed control at 62.5 g/ha: 62.5 g ai/ha, 100=total damage to plant, 0=no damage to plant, read-out: plant damage rating, Barnyardgrass; for pest or weed control at 250 g/ha: 250 g ai/ha, read-out: Barnyardgrass damage rating (100=total damage to plant; 0=no damage to plant)
How it was run: as §1

[4] = system: corn (Zea mays); assay: Test G Pre-Emergence Protocol; details: Zea mays, pre-emergence, 312 h, evaluated after 13 days; for plant injury at 15.625 g/ha: 15.625 g ai/ha; for plant injury at 15.625 g/ha / plant injury at 250 g/ha: read-out: Corn damage rating (100=total damage to plant; 0=no damage to plant); for plant injury at 62.5 g/ha: 62.5 g ai/ha, 100=total damage to plant, 0=no damage to plant, read-out: plant damage rating, Corn; for plant injury at 250 g/ha: 250 g ai/ha
How it was run: as §1

[5] = system: velvetleaf (Abutilon theophrasti); assay: Test G Pre-Emergence Protocol; details: Abutilon theophrasti, pre-emergence, 312 h, evaluated after 13 days; for pest or weed control at 15.625 g/ha: 15.625 g ai/ha; for pest or weed control at 15.625 g/ha / pest or weed control at 250 g/ha: read-out: Velvetleaf damage rating (100=total damage to plant; 0=no damage to plant); for pest or weed control at 62.5 g/ha: 62.5 g ai/ha, 100=total damage to plant, 0=no damage to plant, read-out: plant damage rating, Velvetleaf; for pest or weed control at 250 g/ha: 250 g ai/ha
How it was run: as §1

[6] = system: redroot pigweed (Amaranthus retroflexus); assay: Test G Pre-Emergence Protocol; details: Amaranthus retroflexus, pre-emergence, 312 h, evaluated after 13 days; for pest or weed control at 15.625 g/ha: 15.625 g ai/ha; for pest or weed control at 15.625 g/ha / pest or weed control at 250 g/ha: read-out: Pigweed, Redroot damage rating (100=total damage to plant; 0=no damage to plant); for pest or weed control at 62.5 g/ha: 62.5 g ai/ha, 100=total damage to plant, 0=no damage to plant, read-out: plant damage rating, Pigweed, Redroot; for pest or weed control at 250 g/ha: 250 g ai/ha
How it was run: as §1

[7] = system: giant foxtail (Setaria faberi); assay: Test G Post-Emergence Protocol; details: Setaria faberi, post-emergence, 312 h; for pest or weed control at 15.625 g/ha: 15.625 g ai/ha, evaluated after 13 days (100=total damage to plant; 0=no damage to plant), read-out: Foxtail, Giant damage rating; for pest or weed control at 62.5 g/ha: 62.5 g ai/ha, read-out: Foxtail, Giant damage rating (100=total damage to plant; 0=no damage to plant); for pest or weed control at 62.5 g/ha / pest or weed control at 250 g/ha: evaluated after 13 days; for pest or weed control at 250 g/ha: 250 g ai/ha, read-out: damage to plant, Foxtail, Giant (100=total damage to plant; 0=no damage to plant)
How it was run: (§2)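 Eight days post-sowing, plants received a spray of test compound (acetone/water 50:50, 0.5% Tween 20) at 15.625, 62.5 or 250 g/ha. Glasshouse regime thereafter: 24/16 °C, 14 h light, 65% humidity. Assessment after 13 days on a 0–100 damage scale.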

[8] = system: ivy-leaved morning glory (Ipomoea hederacea); assay: Test G Post-Emergence Protocol; details: Ipomoea, post-emergence, 312 h; for pest or weed control at 15.625 g/ha: 15.625 g ai/ha, evaluated after 13 days (100=total damage to plant; 0=no damage to plant), read-out: Morningglory, Ivy-leaved damage rating; for pest or weed control at 62.5 g/ha: 62.5 g ai/ha, read-out: Morningglory, Ivy-leaved damage rating (100=total damage to plant; 0=no damage to plant); for pest or weed control at 62.5 g/ha / pest or weed control at 250 g/ha: evaluated after 13 days; for pest or weed control at 250 g/ha: 250 g ai/ha, read-out: damage to plant, Morningglory, Ivy-leaved (100=total damage to plant; 0=no damage to plant)
How it was run: as §2

[9] = system: barnyardgrass (Echinochloa crus-galli); assay: Test G Post-Emergence Protocol; details: Echinochloa crus-galli, post-emergence, 312 h; for pest or weed control at 15.625 g/ha: 15.625 g ai/ha, evaluated after 13 days (100=total damage to plant; 0=no damage to plant), read-out: Barnyardgrass damage rating; for pest or weed control at 62.5 g/ha: 62.5 g ai/ha, read-out: Barnyardgrass damage rating (100=total damage to plant; 0=no damage to plant); for pest or weed control at 62.5 g/ha / pest or weed control at 250 g/ha: evaluated after 13 days; for pest or weed control at 250 g/ha: 250 g ai/ha, read-out: damage to plant, Barnyardgrass (100=total damage to plant; 0=no damage to plant)
How it was run: as §2

[10] = system: corn (Zea mays); assay: Test G Post-Emergence Protocol; details: Zea mays, post-emergence, 312 h; for plant injury at 15.625 g/ha: 15.625 g ai/ha, evaluated after 13 days (100=total damage to plant; 0=no damage to plant), read-out: Corn damage rating; for plant injury at 62.5 g/ha: 62.5 g ai/ha, read-out: Corn damage rating (100=total damage to plant; 0=no damage to plant); for plant injury at 62.5 g/ha / plant injury at 250 g/ha: evaluated after 13 days; for plant injury at 250 g/ha: 250 g ai/ha, read-out: damage to plant, Corn (100=total damage to plant; 0=no damage to plant)
How it was run: as §2

[11] = system: velvetleaf (Abutilon theophrasti); assay: Test G Post-Emergence Protocol; details: Abutilon theophrasti, post-emergence, 312 h; for pest or weed control at 15.625 g/ha: 15.625 g ai/ha, evaluated after 13 days (100=total damage to plant; 0=no damage to plant), read-out: Velvetleaf damage rating; for pest or weed control at 62.5 g/ha: 62.5 g ai/ha, read-out: Velvetleaf damage rating (100=total damage to plant; 0=no damage to plant); for pest or weed control at 62.5 g/ha / pest or weed control at 250 g/ha: evaluated after 13 days; for pest or weed control at 250 g/ha: 250 g ai/ha, read-out: damage to plant, Velvetleaf (100=total damage to plant; 0=no damage to plant)
How it was run: as §2

[12] = system: redroot pigweed (Amaranthus retroflexus); assay: Test G Post-Emergence Protocol; details: Amaranthus retroflexus, post-emergence, 312 h; for pest or weed control at 15.625 g/ha: 15.625 g ai/ha, evaluated after 13 days (100=total damage to plant; 0=no damage to plant), read-out: Pigweed, Redroot damage rating; for pest or weed control at 62.5 g/ha: 62.5 g ai/ha, read-out: Pigweed, Redroot damage rating (100=total damage to plant; 0=no damage to plant); for pest or weed control at 62.5 g/ha / pest or weed control at 250 g/ha: evaluated after 13 days; for pest or weed control at 250 g/ha: 250 g ai/ha, read-out: damage to plant, Pigweed, Redroot (100=total damage to plant; 0=no damage to plant)
How it was run: as §2

| Structure (SMILES) | pest or weed control at 15.625 g/ha [1] | pest or weed control at 62.5 g/ha [1] | pest or weed control at 250 g/ha [1] | pest or weed control at 15.625 g/ha [2] | pest or weed control at 62.5 g/ha [2] | pest or weed control at 250 g/ha [2] | pest or weed control at 15.625 g/ha [3] | pest or weed control at 62.5 g/ha [3] | pest or weed control at 250 g/ha [3] | plant injury at 15.625 g/ha [4] | plant injury at 62.5 g/ha [4] | plant injury at 250 g/ha [4] | pest or weed control at 15.625 g/ha [5] | pest or weed control at 62.5 g/ha [5] | pest or weed control at 250 g/ha [5] | pest or weed control at 15.625 g/ha [6] | pest or weed control at 62.5 g/ha [6] | pest or weed control at 250 g/ha [6] | pest or weed control at 15.625 g/ha [7] | pest or weed control at 62.5 g/ha [7] | also measured |
| --- | --- | --- | --- | --- | --- | --- | --- | --- | --- | --- | --- | --- | --- | --- | --- | --- | --- | --- | --- | --- | --- |
| Cc1ncsc1NC(=O)[C@@H]1C(=O)N(C)C[C@H]1c1ccc(C(F)(F)F)cc1 (racemic) [Compound 1635] | 0% | 0% | 0% | 0% | 0% | 0% | 0% | 0% | 0% | 0% | 0% | 0% | 0% | 0% | 0% | 0% | 0% | 0% | 0% | 10% | pest or weed control at 250 g/ha [7]: 40%; pest or weed control at 15.625 g/ha [8]: 0%; pest or weed control at 62.5 g/ha [8]: 0%; pest or weed control at 250 g/ha [8]: 0%; pest or weed control at 15.625 g/ha [9]: 0%; pest or weed control at 62.5 g/ha [9]: 0%; pest or weed control at 250 g/ha [9]: 30%; plant injury at 15.625 g/ha [10]: 0%; plant injury at 62.5 g/ha [10]: 0%; plant injury at 250 g/ha [10]: 0%; pest or weed control at 15.625 g/ha [11]: 0%; pest or weed control at 62.5 g/ha [11]: 0%; pest or weed control at 250 g/ha [11]: 0%; pest or weed control at 15.625 g/ha [12]: 0%; pest or weed control at 62.5 g/ha [12]: 0%; pest or weed control at 250 g/ha [12]: 10% |
| CN1C[C@@H](c2cc(Cl)cc(C(F)(F)F)c2)[C@H](C(=O)Nc2ccccc2F)C1=O (racemic) [Compound 1414] | 60% | 80% | 80% | 0% | 0% | 20% | 20% | 70% | 80% | 0% | 20% | 50% | 0% | 0% | 0% | 0% | 0% | 0% | 70% | 70% | pest or weed control at 250 g/ha [7]: 80%; pest or weed control at 15.625 g/ha [8]: 0%; pest or weed control at 62.5 g/ha [8]: 30%; pest or weed control at 250 g/ha [8]: 30%; pest or weed control at 15.625 g/ha [9]: 50%; pest or weed control at 62.5 g/ha [9]: 50%; pest or weed control at 250 g/ha [9]: 60%; plant injury at 15.625 g/ha [10]: 20%; plant injury at 62.5 g/ha [10]: 50%; plant injury at 250 g/ha [10]: 80%; pest or weed control at 15.625 g/ha [11]: 0%; pest or weed control at 62.5 g/ha [11]: 0%; pest or weed control at 250 g/ha [11]: 0%; pest or weed control at 15.625 g/ha [12]: 10%; pest or weed control at 62.5 g/ha [12]: 0%; pest or weed control at 250 g/ha [12]: 30% |
